In patent publication US12302902B2, “Antimicrobial compositions, including antimicrobial hydrogels, effective against mature biofilms” (Cormedix Inc., priority 2017, dated 2025):

What was measured:
Microbes = conditions: cited from earlier work
P. aeruginosa = conditions: cited from earlier work
[1] = test system: Pseudomonas aeruginosa (PAO1) biofilm; assay: Ex vivo biofilm porcine skin explant model, bacterial load after treatment with hydrogel; format: cell-based; conditions: 3 day cultured PA01 explants, treated with 1 ml solution, cell count Day 4

O=S1(=O)CCN(CN2CCS(=O)(=O)NC2)CN1 [Taurolidine, bis(1,1-dioxoperhydro-1,2,4-thiadiazinyl-4)-methane]
destruction time in vitro (Microbes): 30 min

NC[C@H]1O[C@H](O[C@H]2[C@H](O)[C@@H](O[C@H]3O[C@H](CO)[C@@H](O)[C@H](N)[C@H]3O)[C@H](N)C[C@@H]2N)[C@H](N)C[C@@H]1O [tobramycin]
reduction of biofilm cell counts (P. aeruginosa; P. aeruginosa biofilm, tobramycin levels far in excess of the MIC): approximately 2 logs
decrease in planktonic cells (P. aeruginosa; P. aeruginosa planktonic cells, same dosage): > 8 log

gentamicin
PA01 AVG (average CFU/ml of sonicated explant bacterial suspension) [1]: 3.45E+07 CFU/ml
